For 38 molecules, EC50 results are on record in US9018208B2, “Heterocycles as potassium channel modulators” (Icagen Inc., priority 2007, dated 2015).

The assay deals with SH-SY5Y M-currents (KCNQ2, KCNQ3 and KCNQ5). Briefly: SH-SY5Y native cell line FLIPR assay (voltage-sensitive dye DiBAC). The note with it: FLIPR assay, SH-SY5Y native cell line; Table 2; read-out: SH-SY5Y EC50. The assay is classed as cell-based, mouse neuroblastoma, rat glioma hybrid cell line. The procedure, abridged: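 Response is peak DiBAC fluorescence change, normalised to the maximum from a positive control agent, sampled every 30 s over 25 min. Before compound addition, SH-SY5Y cells differentiated with PGE1 plus isomethylbutylxanthine were dye-loaded for 1 h in EBSS with […] DiBAC.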
Usually EC50 stands for the concentration needed to bring the measured effect to its halfway point. On to `O=C(Cc1ccccc1)Nc1nc2ccc(F)cn2c1-c1ccc(C(F)(F)F)cc1` [Compound 127, N-(6-fluoro-3-(4-(trifluoromethyl)phenyl)imidazo[1,2-a]pyridin-2-yl)-2-phenylacetamide], for which the EC50 is below 500 nM.
Next, `O=C(CC1CC1)Nc1nc2ccc(F)cn2c1-c1ccc(F)cc1` [Compound 129, 2-cyclopropyl-N-(6-fluoro-3-(4-fluorophenyl)imidazo[1,2-a]pyridin-2-yl)acetamide]: 3000 to 10000 nM.
Next, `CC(C)(C)CC(=O)Nc1nc2ccc(Cl)cn2c1-c1ccc(F)cc1` [Compound 130, N-(6-chloro-3-(4-fluorophenyl)imidazo[1,2-a]pyridin-2-yl)-3,3-dimethylbutanamide]: below 500 nM.
In the case of `O=C(Cc1ccc(F)cc1)Nc1nc2ccc(Cl)cn2c1-c1ccc(F)cc1` [Compound 131, N-(6-chloro-3-(4-fluorophenyl)imidazo[1,2-a]pyridin-2-yl)-2-(4-fluorophenyl)acetamide], the EC50 was below 500 nM.
`COc1ccc(CC(=O)Nc2nc3ccc(F)cn3c2-c2ccc(F)cc2)cc1` [Compound 132, N-(6-fluoro-3-(4-fluorophenyl)imidazo[1,2-a]pyridin-2-yl)-2-(4-methoxyphenyl)acetamide]: the concentration giving a half-maximal response (EC50) was in the range of 500 to 3000 nM.
As to `CC(C)CC(=O)Nc1nc2ccc(F)cn2c1-c1ccc(F)cc1` [Compound 133, N-(6-fluoro-3-(4-fluorophenyl)imidazo[1,2-a]pyridin-2-yl)-3-methylbutanamide], the EC50 was 500 to 3000 nM.
Next, `O=C(CCc1ccccc1)Nc1nc2ccc(F)cn2c1-c1ccc(F)cc1` [Compound 134, N-(6-fluoro-3-(4-fluorophenyl)imidazo[1,2-a]pyridin-2-yl)-3-phenylpropanamide]: 500 to 3000 nM.
As for `O=C(Cc1ccc(C(F)(F)F)cc1)Nc1nc2ccc(F)cn2c1-c1ccc(F)cc1` [Compound 135, N-(6-fluoro-3-(4-fluorophenyl)imidazo[1,2-a]pyridin-2-yl)-2-(4-(trifluoromethyl)phenyl)acetamide], the figure is 500 to 3000 nM; as for `O=C(Cc1ccc(F)cc1F)Nc1nc2ccc(F)cn2c1-c1ccc(F)cc1` [Compound 136, 2-(2,4-difluorophenyl)-N-(6-fluoro-3-(4-fluorophenyl)imidazo[1,2-a]pyridin-2-yl)acetamide], 500 to 3000 nM; as for `N#Cc1ccc(CC(=O)Nc2nc3ccc(F)cn3c2-c2ccc(F)cc2)cc1` [Compound 137, 2-(4-cyanophenyl)-N-(6-fluoro-3-(4-fluorophenyl)imidazo[1,2-a]pyridin-2-yl)acetamide], 500 to 3000 nM.
As for `O=C(CC1CC2CCC1C2)Nc1nc2ccc(F)cn2c1-c1ccc(F)cc1` (centres unmarked) [Compound 138, 2-(bicyclo[2.2.1]heptan-2-yl)-N-(6-fluoro-3-(4-fluorophenyl)imidazo[1,2-a]pyridin-2-yl)acetamide], the figure is below 500 nM; as for `CC(CC(=O)Nc1nc2ccc(F)cn2c1-c1ccc(F)cc1)CC(C)(C)C` (centres unmarked) [Compound 139, N-(6-fluoro-3-(4-fluorophenyl)imidazo[1,2-a]pyridin-2-yl)-3,5,5-trimethylhexanamide], below 500 nM.
For the molecule `O=C(Cc1ccc(F)cc1Cl)Nc1nc2ccc(F)cn2c1-c1ccc(F)cc1` [Compound 140, 2-(2-chloro-4-fluorophenyl)-N-(6-fluoro-3-(4-fluorophenyl)imidazo[1,2-a]pyridin-2-yl)acetamide], the EC50 lay in the range of 3000 to 10000 nM.
As for `O=C(Cc1c(F)cccc1Cl)Nc1nc2ccc(F)cn2c1-c1ccc(F)cc1` [Compound 141, 2-(2-chloro-6-fluorophenyl)-N-(6-fluoro-3-(4-fluorophenyl)imidazo[1,2-a]pyridin-2-yl)acetamide], the figure is 3000 to 10000 nM.
Consider `Cc1ccc(CC(=O)Nc2nc3ccc(F)cn3c2-c2ccc(F)cc2)cc1` [Compound 143, N-(6-fluoro-3-(4-fluorophenyl)imidazo[1,2-a]pyridin-2-yl)-2-p-tolylacetamide], for which the EC50 was below 500 nM.
With `CC(CC(=O)Nc1nc2ccc(F)cn2c1-c1ccc(F)cc1)C(F)(F)F` (centres unmarked) [Compound 144, 4,4,4-trifluoro-N-(6-fluoro-3-(4-fluorophenyl)imidazo[1,2-a]pyridin-2-yl)-3-methylbutanamide], the concentration for a half-maximal effect (EC50) was in the range of 500 to 3000 nM.
As for `O=C(Cc1ccc(Cl)cc1)Nc1nc2ccc(F)cn2c1-c1ccc(F)cc1` [Compound 145, 2-(4-chlorophenyl)-N-(6-fluoro-3-(4-fluorophenyl)imidazo[1,2-a]pyridin-2-yl)acetamide], the figure is 500 to 3000 nM.
As for `O=C(Nc1nc2ccc(F)cn2c1-c1ccc(F)cc1)OCc1ccccc1` [Compound 146, benzyl 6-fluoro-3-(4-fluorophenyl)imidazo[1,2-a]pyridin-2-ylcarbamate], the figure is below 500 nM; as for `CCC(C)CC(=O)Nc1nc2ccc(F)cn2c1-c1ccc(F)cc1` (centres unmarked) [Compound 147, N-(6-fluoro-3-(4-fluorophenyl)imidazo[1,2-a]pyridin-2-yl)-3-methylpentanamide], 500 to 3000 nM; as for `O=C(Cc1ccc(F)cc1)Nc1nc2ccc(F)cn2c1-c1cccc(Cl)c1` [Compound 148, N-(3-(3-chlorophenyl)-6-fluoroimidazo[1,2-a]pyridin-2-yl)-2-(4-fluorophenyl)acetamide], below 500 nM.
As for `CC(C)(C)CC(=O)Nc1nc2ccc(F)cn2c1-c1cccc(Cl)c1` [Compound 149, N-(3-(3-chlorophenyl)-6-fluoroimidazo[1,2-a]pyridin-2-yl)-3,3-dimethylbutanamide], the figure is below 500 nM; as for `CC(C)(C)CC(=O)Nc1nc2ccc(F)cn2c1-c1ccc(Cl)cc1` [Compound 150, N-(3-(4-chlorophenyl)-6-fluoroimidazo[1,2-a]pyridin-2-yl)-3,3-dimethylbutanamide], below 500 nM; as for `C#CCCCC(=O)Nc1nc2ccc(F)cn2c1-c1ccc(F)cc1` [Compound 151, N-(6-fluoro-3-(4-fluorophenyl)imidazo[1,2-a]pyridin-2-yl)hex-5-ynamide], 500 to 3000 nM.
Regarding `CC(C)(C)CC(=O)Nc1nc2ccc(Br)cn2c1-c1ccc(F)cc1` [Compound 152, N-(6-bromo-3-(4-fluorophenyl)imidazo[1,2-a]pyridin-2-yl)-3,3-dimethyl butanamide], the EC50 was below 500 nM.
Regarding `O=C(Cc1ccc(F)cc1)Nc1nc2ccc(F)cn2c1-c1ccc(OC(F)(F)F)cc1` [Compound 154, N-(6-fluoro-3-(4-(trifluoromethoxy)phenyl)imidazo[1,2-a]pyridin-2-yl)-2-(4-fluorophenyl)acetamide], the concentration for a half-maximal effect (EC50) is below 500 nM.
As for `O=C(Cc1ccccc1)Nc1nc2ccc(F)cn2c1-c1cccc(Cl)c1` [Compound 155, N-(3-(3-chlorophenyl)-6-fluoroimidazo[1,2-a]pyridin-2-yl)-2-phenylacetamide], the figure is below 500 nM; as for `O=C(CC1CCCC1)Nc1nc2ccc(F)cn2c1-c1ccc(C(F)(F)F)cc1` [Compound 156, 2-cyclopentyl-N-(6-fluoro-3-(4-(trifluoromethyl)phenyl)imidazo[1,2-a]pyridin-2-yl)acetamide], below 500 nM.
As for `O=C(CC1CCCCC1)Nc1nc2ccc(F)cn2c1-c1ccc(C(F)(F)F)cc1` [Compound 157, 2-cyclohexyl-N-(6-fluoro-3-(4-(trifluoromethyl)phenyl)imidazo[1,2-a]pyridin-2-yl)acetamide], the figure is below 500 nM.
Next, `CC(C)(C)CC(=O)Nc1nc2ccc(F)cn2c1-c1ccccc1Cl` [Compound 158, N-(3-(2-chlorophenyl)-6-fluoroimidazo[1,2-a]pyridin-2-yl)-3,3-dimethylbutanamide]: 500 to 3000 nM; `CC(C)(C)CC(=O)Nc1nc2ccc(C#N)cn2c1-c1ccc(F)cc1` [Compound 159, N-(6-cyano-3-(4-fluorophenyl)imidazo[1,2-a]pyridin-2-yl)-3,3-dimethylbutanamide]: 500 to 3000 nM.
For `N#Cc1ccc2nc(NC(=O)Cc3ccccc3)c(-c3ccc(F)cc3)n2c1` [Compound 160, N-(6-cyano-3-(4-fluorophenyl)imidazo[1,2-a]pyridin-2-yl)-2-phenylacetamide], the concentration giving a half-maximal response (EC50) fell in the range of 500 to 3000 nM.
For `O=C(Nc1nc2ccc(F)cn2c1-c1ccc(C(F)(F)F)cc1)OCc1ccccc1` [Compound 161, benzyl 6-fluoro-3-(4-(trifluoromethyl)phenyl)imidazo[1,2-a]pyridin-2-ylcarbamate], the EC50 is 3000 to 10000 nM.
Turning to `CC(C)C(C)C(=O)Nc1nc2ccc(F)cn2c1-c1ccc(F)cc1` (centres unmarked) [Compound 162, N-(6-fluoro-3(4-fluorophenyl)imidazo[1,2-a]pyridin-2-yl)-2,3-dimethylbutanamide], the EC50 fell in the range of 500 to 3000 nM.
As for `CC(C)(C)CC(=O)Nc1nc2ccc(F)cn2c1-c1cccc(C(F)(F)F)c1` [Compound 163, N-(6-fluoro-3-(3-(trifluoromethyl)phenyl)imidazo[1,2-a]pyridin-2-yl)-3,3-dimethylbutanamide], the figure is below 500 nM; as for `O=C(Cc1ccc(F)cc1)Nc1nc2ccc(F)cn2c1-c1cccc(C(F)(F)F)c1` [Compound 164, N-(6-fluoro-3-(3-(trifluoromethyl)phenyl)imidazo[1,2-a]pyridin-2-yl)-2-(4-fluorophenyl)acetamide], below 500 nM.
Consider `O=C(Cc1ccccc1)Nc1nc2ccc(F)cn2c1-c1cccc(C(F)(F)F)c1` [Compound 165, N-(6-fluoro-3-(3-(trifluoromethyl)phenyl)imidazo[1,2-a]pyridin-2-yl)-2-phenylacetamide], for which the EC50 is below 500 nM.
Regarding `Cc1ccc2nc(NC(=O)Cc3ccccc3)c(-c3ccc(F)cc3)n2c1` [Compound 166, N-(3-(4-fluorophenyl)-6-methylimidazo[1,2-a]pyridin-2-yl)-2-phenylacetamide], the half-maximal effective concentration (EC50) is below 500 nM.
Next, `Cc1ccc2nc(NC(=O)CC(C)(C)C)c(-c3ccc(F)cc3)n2c1` [Compound 167, N-(3-(4-fluorophenyl)-6-methylimidazo[1,2-a]pyridin-2-yl)-3,3-dimethylbutanamide]: below 500 nM.
